{
  "source": "patent US7408025B2",
  "about": "“Lipopeptides as antibacterial agents” (priority 1999, dated 2008)",
  "assay": "Acute toxicity monitoring in non-inoculated mice",
  "type": "in vivo, female CD-1 mice",
  "conditions": "not inoculated; 10 mg/kg, s.c. × 2; acute toxicity group",
  "method": "The test compound was dissolved in 10.0 ml of 50 mM phosphate buffer to give a solution of 1 mg/ml (pH=7.0). This solution was serially diluted with vehicle by 4-fold ([…]) to give 0.25, 0.063 and 0.016 mg/ml solutions. All the solutions were filtered with […] Nalgene syringe filter. Immediately after the bacterial inoculation, group 1 animals were subcutaneously (sc) injected with buffer (no test compound) and groups 2 to 5 were given test compound sc at 10.0, 2.5, 0.63, and 0.16 mg/kg, respectively. Group 6 animals received test compound sc at 10 mg/kg (or the highest therapeutic dose of a given compound) only for monitoring acute toxicity. These injections were repeated once at 4 hours after the inoculation for the respective groups. The injection volume at each time was 10 ml per kilogram of body weight. The results of the in vivo efficacy test are summarized in Table II, which provides a representative example of the results obtained for Compound 70. The 50% effective dose (ED50) is calculated on the basis of the number of mice surviving 7 days after inoculation. The ED50 was determined for other compounds of this invention in a similar manner.",
  "data": [
    {"compound": "CCCCCCCCCC(=O)NC(Cc1c[nH]c2ccccc12)C(=O)NC(CC(N)=O)C(=O)NC(CC(=O)O)C(=O)NC1C(=O)NCC(=O)NC(CCCNC(=O)C2Cc3c([nH]c4ccccc34)CN2)C(=O)NC(CC(=O)O)C(=O)NC(C)C(=O)NC(CC(=O)O)C(=O)NCC(=O)NC(CO)C(=O)NC(C(C)CC(=O)O)C(=O)NC(CC(=O)c2ccccc2N)C(=O)OC1C", "note": "(stereo not shown) [Compound 70]", "values": [
      {"measurement": "Survival (7 days)", "value": "5/5"}
    ]}
  ]
}
